Measured values as given in EP2229935A1, “Peptide derivatives or pharmaceutically acceptable salts thereof, method for producing the same, use of said derivatives and pharmaceutical composition” (Nebolsin, Vladimir Evgenievich, priority 1997, dated 1999).
Values joined by “and” are separate entries in the source; they are usually repeats but may differ in a detail not shown here. Identical values can stand only once. Marks after values point to notes of the source that are not given here.

Tests used:
mongrel male mice = assay: Delayed hypersensitivity induced by picryl chloride (TCB), local ointment; type: in vivo
Description: Effect study of the compounds on the delayed type hypersensitivity reaction induced in mice by 2.4.6-trichlorobenzol (TCB) was carried out according to the method of Tarayre et al. [Tarayre J.P., Barbara M., Aliaga M., Tisne-Versilles. Comparative actions of immunosuppressants, glucocorticoids and non-steroidal antiinflammatory drugs on various models of delayed hypersensitivity and on a non-immune inflammation in mice. Arzneim.-Forsch. Drug Res. (1990), Vol. 40, pip.1125-1131].
Studies were conducted on mongrel male mice with initial body mass 30-35 g. Each group included 10 animals. Mice were sensitized with 0.1 ml 3% TCB solution in acetone application on a shaved abdominal area. In 7 days, the anaphylaxis-provoking TCB dose (0.025 ml of 3% solution) was applied on both surfaces of the right ear. In 30 minutes 0.05 ml of the test ointment were rubbed into the same surfaces. 24 hours after edema induction, mice were sacrified, ears were cut off and weighed. Allergic reaction intensity was assessed by change in weight in grams of the right ear (the test one) in relation to the left ear (the control ear).
Allergic reaction inhibition expressed in percent was calculated according to the formula: 100-[(R-L(exper.))/(L):(R-L(control))/(L)x100](%) [formula] where R - the right ear weight, L - the left ear weight.
The test compounds were applied on the ear in the form of 1% and 5% ointment the base of which were 10% methylcellulose solution and propylene glycol at 1:1 ratio.
Groups of animals: • Group 1 - control, ointment base without active substance was applied on the ear of animals. • Group 2 - ointment base comprising 1% compound III was applied on the ear of animals. • Group 3 - ointment base comprising 1% compound XVII was applied on the ear of animals. • Group 4 - ointment base comprising 5% compound XLVIII was applied on the ear of animals.

Wistar male rats = assay: Blood glucose level in rats with streptozotocine diabetes; type: in vivo; conditions: for Blood glucose level: Initial level: intragastral four days
Description: Experiments were carried out on Wistar male rats weighing 250-300 g. Experimental diabetes was induced with single intravenous injection of streptozotocine (the Synthez cooperative enterprise at the IMBG of the Academy of Sciences of Ukraine) at a dose 42 mg/kg to rats which were preliminarily fasting for 24 hours with access to food immediately following injection. Rats were selected for experiment 2 weeks after diabetes induction with glycemia 120-180 mg/dl. Each group included 12 animals.
The compounds were intragastrally administered to intact animals and to rats with streptozotocine diabetes for four days at daily doses 50 µg/kg and 500 µg/kg in water solution at a rate of 1 ml per 200 g of body mass. Intact animals were given the compounds III and XLIV, and rats with induced diabetes were given the compound XLIV. Check blood glucose level determination was done at the day of experiment, then animals were administered the test compounds and were deprived of food. The control animals received a respective water volume. Effect was estimated by change in blood glucose level in 2 and 5 hours. Then animals received forage and 24 hours after the last drug administration blood was again sampled for examination. 0.1 ml of blood were collected from the tail vein. Glucose level was determined using the o-toluidine method.
Glucose level was calculated in mg/dl using standard glucose solutions. Then the degree of change in glucose level in relation to the initial level was determined for each animal with its expression in percent from the initial level. Final calculation was performed for each group of animals. Each group included 10 animals.

[1] = tested on: Lewis pulmonary carcinoma (LLC); assay: LLC metastasizing: compound III substance versus tabletted dosage form; type: in vivo, C57BL/6 female mice; conditions: C57BL/6 mice with LLC; oral 500 µg/kg (active basis) daily day 1-10; 24 days
Description: To estimate therapeutic efficacy of compound III tabletted dosage form (0.2 g tablets 6 mm in diameter comprising 17 mg substance) studies were carried out on the model of spontaneous LLC carcinoma metastasizing.
Experiments were carried out on C57BL/6 female mice weighing 20-25 g. Experimental groups included 8 animals and the control group 11 mice. Substance and dosage form of compound III were administered orally at a dose 500 µg/kg (at a rate per an active basis) daily from day 1 till day 10 of experiment. Experiment lasted for 24 days.

[2] = tested on: thromboxane A2 and prostacycline; assay: Prostacycline to thromboxane ratio in mice with Lewis pulmonary carcinoma; type: in vivo, C57B1 male mice; conditions: mice with transplanted Lewis carcinoma, day 24; 500 µg/kg per day in drinking water
Description: Experiments were carried out on C57B1 male mice weighing 18-20 g. Lewis pulmonary carcinoma (generation 3) transplantation was performed according to a conventional technique [Experimental estrimation of antitumor drugs in the U.S.S.R. and the U.S.A. edited by E.P.Sof'ina, A.B.Syrkin, A.Goldin, A.Kline. Moscow, Meditsina publishers (1980), 296 pp.]. Each group included 8 animals. Administration of compound III at a dose 500 µg/kg per day in drinking water was commenced since 24 hours after tumor transplantation.
Determination of thromboxane A2 and prostacycline was done according to the technique described in example 35. By day 24 of experiments animals were sacrified and the test parameters were determined.
Groups of animals: • Group 1 - intact control. • Group 2 - mice with transplanted Lewis carcinoma. • Group 3 - mice with transplanted Lewis carcinoma + compound III.

Wistar rats = assay: Non-infectious pulmonary granulomatosis model (aerosol Sephadex A-25); conditions: intragastral 50 mg/kg once daily
Description: Antiinflammatory and immunomodulating effect of the compound III with intragastral administration was studied on the non-infectious pulmonary granulomatosis model.
20 female 4 months old Wistar rats weighing 200-220 g were used in exepriment.
Sephadex A-25 at a dose 5 mg per 1 kg of body mass, as administered to rats under ether anesthesia using an original dosing device for inhalation administering dry powders manufactured at the Scientific-Research Institute for Medical Instrument-Making. […] Compound III was administered intragastrally using a gastric probe at a dose 50 mg per 1 kg of body mass and immediately after that, single aerosol administration of Sephadex A-25 was performed according to the earlier described technique. Then compound III was administered intragastrally once daily for 6 days at a dose 50 mg/kg of body mass in the form of water solution. Rats were examined by day 7 after commencement of administering compound III and Sephadex A-25.
Bronchoalveolar lavage was obtained under Hexenal anesthesia. Cytosis, i.e. absolute number of cells in 1 ml was determined in the bronchoalveolar lavage fluid. Endopulmonal cytogram (in percent) was calculated in the smears stained according to Romanovsky-Gimza. […] Histological examination of lungs stained with hematoxylin and eosine was performed. Volume density of alveolitis and emphysema was determined using the point count method.

[3] = Wistar rats, day 7 after aerosol Sephadex A-25

Structure (SMILES): O=C(O)CCCC(=O)NCCc1c[nH]cn1 [compound III, N-GLUTARYLHISTAMINE]
- Weight of years (g) left (mongrel male mice): 15.4 ± 1.12 g
- Reaction inhibition (%) (mongrel male mice; mice, TCB, 1% ointment): 38%
- weight increment (mongrel male mice; mice, TCB, 1% ointment): 4.9 ± 0.5 g
- Blood glucose level in 2 hours, percent from the initial level (Wistar male rats; 50 µg/kg): 65.4 ± 4.3%
- Blood glucose level in 5 hours, percent from the initial level (Wistar male rats; 50 µg/kg): 43.9 ± 4.9%
- Blood glucose level in 24 hours, percent from the initial level (Wistar male rats; 50 µg/kg): 83.7 ± 6.6%
- Blood glucose level: mg/dl in 2 hours (Wistar male rats; 50 µg/kg): 94.4 ± 5.4 mg/dL
- Blood glucose level: mg/dl in 5 hours (Wistar male rats; 50 µg/kg): 64.1 ± 5.0 mg/dL
- Blood glucose level: mg/dl in 24 hours (Wistar male rats; 50 µg/kg): 122.2 ± 9.2 mg/dL
- Blood glucose level in 2 hours, percent from the initial level (Wistar male rats; 500 µg/kg): 67.6 ± 3.6%
- Blood glucose level in 5 hours, percent from the initial level (Wistar male rats; 500 µg/kg): 44.9 ± 4.5%
- Blood glucose level in 24 hours, percent from the initial level (Wistar male rats; 500 µg/kg): 98.9 ± 10.2%
- Blood glucose level: mg/dl in 2 hours (Wistar male rats; 500 µg/kg): 98.8 ± 5.6 mg/dL
- Blood glucose level: mg/dl in 5 hours (Wistar male rats; 500 µg/kg): 65.1 ± 1.1 mg/dL
- Blood glucose level: mg/dl in 24 hours (Wistar male rats; 500 µg/kg): 143.4 ± 10.9 mg/dL
- Blood glucose level: Initial level (Wistar male rats; 50 µg/kg): 146.9 ± 8.2 mg/dL
- Blood glucose level: Initial level (Wistar male rats; 500 µg/kg): 145.2 ± 10.6 mg/dL
- Mean number of metastases [1]: 22.5 ± 0.9
- Metastasizing inhibition percent [1]: 46.4%
- Metastasizing rate in percent [1]: 100%
- Tumor mass [1]: 12.9 ± 0.9 g
- Prostacycline [2]: 5.80 ± 0.75*^2
- Ratio 6-keto-PGF1α :TXB2 [2]: 0.80 ± 0.11*^2
- Thromboxane A2 [2]: 7.23 ± 0.18*^C
- Volume density in percent: Alveolitis (Wistar rats; [3]): 3.8±0.1% and 3.8 ± 1.0%
- Volume density in percent: Emphysema (Wistar rats; [3]): 11.2±3.2%
- Cytosis (absolute number of cells in 1 ml) (Wistar rats; bronchoalveolar lavage, day 7): 0.169 ± 0.054
- Endopulmonary cytogram in percent: Lymphocytes (Wistar rats; bronchoalveolar lavage, day 7): 7.6 ± 1.5%
- Endopulmonary cytogram in percent: Macrophages (Wistar rats; bronchoalveolar lavage, day 7): 75.2 ± 4.5%
- Endopulmonary cytogram in percent: Neutrophils (Wistar rats; bronchoalveolar lavage, day 7): 16.8 ± 2.6%
- Volume density of lymphoid follicles in percent (Wistar rats; lymphoid tissue associated with bronchi, day 7): 34.7 ± 10.3%
